According to ChEMBL document CHEMBL1201862, “PubChem BioAssay data set” (2004):
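Grown in 96-well plates, cells were treated for 48 hours with each compound at five concentrations. Insufficient inhibition: endpoint recorded as highest concentration tested. At the GI50, growth is halved.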 Calls of active or inactive are those of the source. Cut-off read from the data, not from the text of the source: active = GI50 up to about 1.1 µM and inactive = higher.

Experiments:
Experiment in all cases: NCI-60 cell line screen, 48 h
A498 = tested on: A498
CCRF-CEM = tested on: CCRF-CEM
HCC 2998 = tested on: HCC 2998
HL-60 = tested on: HL-60
HOP-62 = tested on: HOP-62
HOP-92 = tested on: HOP-92
IGROV-1 = tested on: IGROV-1
LOX IMVI = tested on: LOX IMVI
M14 = tested on: M14
MDA-N = tested on: MDA-N
NCI-H226 = tested on: NCI-H226
NCI-H23 = tested on: NCI-H23
NCI-H522 = tested on: NCI-H522
NCI/ADR-RES = tested on: NCI/ADR-RES
RPMI-8226 = tested on: RPMI-8226
SF-268 = tested on: SF-268
SF-295 = tested on: SF-295
SK-MEL-28 = tested on: SK-MEL-28
SNB-19 = tested on: SNB-19
UO-31 = tested on: UO-31

Row | Compound | GI50 (A498) | GI50 (CCRF-CEM) | GI50 (HCC 2998) | GI50 (HL-60) | GI50 (HOP-62) | GI50 (HOP-92) | GI50 (IGROV-1) | GI50 (LOX IMVI) | GI50 (M14) | GI50 (MDA-N) | GI50 (NCI-H226) | GI50 (NCI-H23) | GI50 (NCI-H522) | GI50 (NCI/ADR-RES) | GI50 (RPMI-8226) | GI50 (SF-268) | GI50 (SF-295) | GI50 (SK-MEL-28) | GI50 (SNB-19) | GI50 (UO-31)
1 | O=C(O)/C=C\C(=O)Nc1ccc2c(c1)-c1ccccc1C2 | 94.6 µM (inactive) | 56.8 µM (inactive) | 36.7 µM (inactive) | > 100 µM (inactive) | 81.3 µM (inactive) | 44.6 µM (inactive) | > 100 µM (inactive) | 77.3 µM (inactive) | > 100 µM (inactive) | > 100 µM (inactive) | 28.9 µM (inactive) | 70.8 µM (inactive) | 37 µM (inactive) | 56.1 µM (inactive) | 42.5 µM (inactive) | 58.2 µM (inactive) | > 100 µM (inactive) | > 100 µM (inactive) | 42.3 µM (inactive) | > 100 µM (inactive)
2 | CCCCCCCCCCCC1NC(N)=NC(CCCO)=C1C(=O)OC (stereo not drawn) | 14.6 µM (inactive) | 1.59 µM (inactive) | 2.35 µM (inactive) | 1.42 µM (inactive) | 2.82 µM (inactive) | 3.54 µM (inactive) | 1.84 µM (inactive) | 1.66 µM (inactive) | 1.93 µM (inactive) | 2.44 µM (inactive) | 6.3 µM (inactive) | 2.08 µM (inactive) | 1.77 µM (inactive) | 17.7 µM (inactive) | 2.32 µM (inactive) | 2.48 µM (inactive) | 2.93 µM (inactive) |  | 1.83 µM (inactive) | 15.3 µM (inactive)
3 | NC(=O)C(C(N)=O)=C(O)/C(O)=C/C(=O)c1ccccc1 | > 100 µM (inactive) | 21.5 µM (inactive) | > 100 µM (inactive) | 28.4 µM (inactive) | > 100 µM (inactive) | > 100 µM (inactive) | > 100 µM (inactive) | 89.9 µM (inactive) | > 100 µM (inactive) | > 100 µM (inactive) | > 100 µM (inactive) | > 100 µM (inactive) | 16.4 µM (inactive) | > 100 µM (inactive) | 12.6 µM (inactive) | > 100 µM (inactive) | > 100 µM (inactive) | > 100 µM (inactive) | > 100 µM (inactive) | > 100 µM (inactive)
4 | CC(C)OC(=O)Nc1c([N+](=O)[O-])cc(C(F)(F)F)cc1[N+](=O)[O-] | > 100 µM (inactive) | > 100 µM (inactive) | > 100 µM (inactive) | > 100 µM (inactive) | 93.3 µM (inactive) | 33 µM (inactive) | > 66.7 µM (inactive) | > 100 µM (inactive) | > 100 µM (inactive) | > 100 µM (inactive) | > 89.1 µM (inactive) | 69.5 µM (inactive) | > 95.7 µM (inactive) | > 100 µM (inactive) | > 100 µM (inactive) | 39.4 µM (inactive) | 54.1 µM (inactive) | > 100 µM (inactive) | 41.1 µM (inactive) | > 90.2 µM (inactive)
5 | Cc1cc2c(cc1C)N1C(Cl)=C3CCCCC3=C(C#N)C1N2 (stereo not drawn) | 19.1 µM (inactive) | 2.48 µM (inactive) | 8.69 µM (inactive) | 3.05 µM (inactive) | 14.3 µM (inactive) | 7.4 µM (inactive) | 6.76 µM (inactive) | 2.19 µM (inactive) | 7.38 µM (inactive) | 4.15 µM (inactive) | 13.5 µM (inactive) | 4.98 µM (inactive) | 2 µM (inactive) | 6.31 µM (inactive) | 5.25 µM (inactive) | 9.25 µM (inactive) | 20.4 µM (inactive) | 3.3 µM (inactive) | 20.2 µM (inactive) | 6.55 µM (inactive)
6 | C=CCc1cccc2cc(C(=O)Nc3nc(C45CC6CC(CC(C6)C4)C5)cs3)c(=O)oc12 | 25.2 µM (inactive) | 64.3 µM (inactive) | 33 µM (inactive) | 34 µM (inactive) | 17.8 µM (inactive) | 16 µM (inactive) | 27.8 µM (inactive) | 19.4 µM (inactive) |  | 45 µM (inactive) | 29.1 µM (inactive) | 18 µM (inactive) | 49.7 µM (inactive) | 27.2 µM (inactive) | 26.9 µM (inactive) | 10.7 µM (inactive) | 16.3 µM (inactive) | 61.8 µM (inactive) | 26.1 µM (inactive) | 10.8 µM (inactive)
7 | COc1cc2cc(C(=O)N3CC(CCl)c4ccc(NCCN)cc43)[nH]c2c(OC)c1OC (stereo not drawn) | 0.184 µM (active) | 0.0783 µM (active) | 0.146 µM (active) | 0.0319 µM (active) | 0.166 µM (active) | 0.289 µM (active) | 0.112 µM (active) | 0.155 µM (active) | 0.198 µM (active) | 0.176 µM (active) | 0.296 µM (active) | 0.0822 µM (active) | 0.046 µM (active) | 0.208 µM (active) | 0.153 µM (active) | 0.242 µM (active) | 0.197 µM (active) | 0.249 µM (active) | 0.292 µM (active) | 0.132 µM (active)
8 | C=CC(C)(C)N[C@@H](C(=O)N1CCC[C@H]1c1nc(-c2nc(C(=O)OCC=C(C)C)c(C)o2)c(C)o1)C(C)C | 19.7 µM (inactive) | 11.7 µM (inactive) | 18.9 µM (inactive) | 20.6 µM (inactive) | 21.6 µM (inactive) | 17.5 µM (inactive) | 28.8 µM (inactive) | 30.6 µM (inactive) | 29 µM (inactive) | 18 µM (inactive) | 17 µM (inactive) | 21.8 µM (inactive) | 16.9 µM (inactive) | 22.6 µM (inactive) | 18.7 µM (inactive) | 20.9 µM (inactive) | 20.1 µM (inactive) | 18.5 µM (inactive) | 19.7 µM (inactive) | 14.3 µM (inactive)
9 | O=C1NCC(CSc2nc3cc(C4CCCc5c4[nH]c4ccccc54)ccc3o2)N1 (stereo not drawn) | 18 µM (inactive) | 35.2 µM (inactive) | 95.1 µM (inactive) | 43.9 µM (inactive) | > 100 µM (inactive) | 21.2 µM (inactive) | 33 µM (inactive) | 32.5 µM (inactive) | 45.1 µM (inactive) | 42.8 µM (inactive) | 62.7 µM (inactive) | 32.5 µM (inactive) | 29.2 µM (inactive) | 50.4 µM (inactive) | 22.4 µM (inactive) | 36 µM (inactive) | 43.5 µM (inactive) | 80.2 µM (inactive) | 53.7 µM (inactive) | 53.1 µM (inactive)
10 | CC(C)C1=C2CCC3(C)C(CCC4C5C6OCC5(CCC6(C)C)CCC43C)C2(C)CC1 (stereo not drawn) | 20.4 µM (inactive) | 12.3 µM (inactive) | 18.8 µM (inactive) | 8.81 µM (inactive) | 18.1 µM (inactive) | 18.6 µM (inactive) | 13.1 µM (inactive) | 14.4 µM (inactive) | 17.4 µM (inactive) | 13.7 µM (inactive) | 33.7 µM (inactive) | 21.3 µM (inactive) | 18.8 µM (inactive) | 18.9 µM (inactive) | 13.6 µM (inactive) | 28.8 µM (inactive) | 19.7 µM (inactive) | 17.8 µM (inactive) | 29.1 µM (inactive) | 18.1 µM (inactive)
11 | CN1CCN([C@H]2C[C@H]3[C@@H]4CC=C5C[C@@H](O)CC[C@]5(C)[C@H]4CC[C@]3(C)C2=O)CC1 | > 100 µM (inactive) | > 100 µM (inactive) | > 100 µM (inactive) | 31.8 µM (inactive) | > 100 µM (inactive) | > 100 µM (inactive) | > 100 µM (inactive) | > 100 µM (inactive) | > 100 µM (inactive) | > 100 µM (inactive) | > 100 µM (inactive) | > 100 µM (inactive) | > 100 µM (inactive) | > 100 µM (inactive) | 91 µM (inactive) | > 100 µM (inactive) | > 100 µM (inactive) | > 100 µM (inactive) | > 100 µM (inactive) | > 100 µM (inactive)
12 | O=S(=O)(O)c1ccc2c(/N=N/c3ccc(S(=O)(=O)O)c4ccccc34)c(O)c(S(=O)(=O)O)cc2c1 | > 100 µM (inactive) | > 100 µM (inactive) | > 100 µM (inactive) | > 100 µM (inactive) | > 100 µM (inactive) | > 100 µM (inactive) | > 100 µM (inactive) | > 100 µM (inactive) | > 100 µM (inactive) | > 100 µM (inactive) | > 100 µM (inactive) | > 100 µM (inactive) | > 100 µM (inactive) | > 100 µM (inactive) | > 100 µM (inactive) | > 100 µM (inactive) | > 100 µM (inactive) | > 100 µM (inactive) | > 100 µM (inactive) | > 100 µM (inactive)
13 | CC(=O)OC(C)c1cc2c(s1)C(=O)c1scc(C(C)OC(C)=O)c1C2=O (stereo not drawn) | 0.619 µM (active) | 0.367 µM (active) | 0.317 µM (active) | 0.646 µM (active) | 0.191 µM (active) | 1.71 µM (inactive) | 0.662 µM (active) | 0.118 µM (active) | 0.117 µM (active) | 0.0817 µM (active) | 2.24 µM (inactive) | 0.157 µM (active) | 0.215 µM (active) | 0.255 µM (active) | 0.223 µM (active) | 0.211 µM (active) | 0.164 µM (active) | 0.226 µM (active) | 0.201 µM (active) | 0.204 µM (active)
14 | CN(C)CCNc1ccc(CO)c2oc3ccc(O)cc3c(=O)c12 | 12.7 µM (inactive) | 4.56 µM (inactive) | 14 µM (inactive) | 10.8 µM (inactive) | 10.3 µM (inactive) | 15.7 µM (inactive) | 19.1 µM (inactive) | 11.5 µM (inactive) | 15.7 µM (inactive) | 12.8 µM (inactive) | 11.7 µM (inactive) | 11.5 µM (inactive) | 4.32 µM (inactive) | 21.3 µM (inactive) | 12.3 µM (inactive) | 9.31 µM (inactive) | 14.2 µM (inactive) | 16.9 µM (inactive) | 17.1 µM (inactive) | 10.5 µM (inactive)
